What was measured:
[1] = system: RS4;11 (BCL-2 dependent acute lymphoblastic leukemia cell line); assay: RS4;11 Cell Proliferation Assay; type: cell-based; conditions: Homo sapiens, RS4-11, RS4;11 cells, read-out: Cellular proliferation assay (IC50, nM) RS4
Method in brief: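 Viability measured via CellTiter-Glo luminescence after a 48 h, 37 °C exposure to compounds (10 points, highest 1 μM). Seeding was 50,000 RS4;11 cells per well in 10% FBS RPMI-1640; IC50 given as mean.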

[2] = molecular target: Recombinant human Bcl-2 protein (Homo sapiens (Human), UniProt P10415); assay: Bcl-2 TR-FRET Assay; type: binding; conditions: Bcl-2 wild type, TR-FRET; read-out: Biochemical assay (IC50, nM) Bcl-2 WT
Method in brief: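 Displacement of FITC-labelled Bak peptide (0.5 nM) from 0.05 nM human Bcl-2, detected by TR-FRET with Tb-cryptate anti-6His antibody after 1 h at room temperature. Compounds, 10-point series, preincubated 0.5 h with protein in 20 mM potassium phosphate pH 7.5, 50 mM NaCl. IC50s fitted by four-parameter logistic.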

[3] = system: BCL-2 G101V knock-in cell line H96 (derive from RS4;11); assay: Bcl 2-G101V Knock-In RS4;11 Cell Proliferation Assay; type: cell-based; conditions: Homo sapiens, RS4;11 Bcl-2 G101V knock-in clone H96, 48 hrs, CellTiter-GLO, read-out: Cellular proliferation assay (IC50, nM) RS4
Method in brief: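 CellTiter-Glo luminescence after 48 h, 37 °C compound treatment (10 concentrations, maximum 1 μM or 10 μM) gave mean IC50 values. Cells were 50,000 per well of H96, a BCL2-G101V knock-in single clone derived from RS4;11 by Cas9 editing.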

[4] = system: recombinant human Bcl-2-G101V protein; assay: Bcl-2-G101V TR-FRET Assay; type: binding; conditions: ratio of biochemical IC50 Bcl-2 G101V / Bcl-2 WT
Method in brief: (§1)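 Measures how compounds block Bcl-2-G101V engaging its ligand, by TR-FRET with 337 nm excitation and a 490/520 nm emission ratio; dose-response data give IC50 via a four-parameter logistic model.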

[5] = molecular target: recombinant human Bcl-2-G101V protein (Homo sapiens (Human), UniProt P10415, G101V); assay: Bcl-2-G101V TR-FRET Assay; type: binding; conditions: Bcl-2 G101V mutant, TR-FRET; read-out: Biochemical assay (IC50, nM) Bcl-2 G101V
Method in brief: as §1

Structure (SMILES) | IC50 [1] [nM] | IC50 [2] [nM] | IC50 [3] [nM] | Ratio of Bcl-2 G101V/WT [4] | IC50 [5] [nM]
COc1ccc(CN2CCN(C3CC4(CCN(c5ccc(C(=O)NS(=O)(=O)c6ccc(NCC7CCOCC7)c([N+](=O)[O-])c6)c(Oc6cnc7[nH]cc(F)c7c6)c5)CC4)C3)[C@H](c3ccccc3C(C)C)C2)cc1OC [Example 191, (R)-4-(2-(4-(3,4-dimethoxybenzyl)-2-(2-isopropylphenyl)piperazin-1-yl)-7-azaspiro[3.5]nonan-7-yl)-2-((3-fluoro-1H-pyrolo[2,3-b]pyridin-5-yl)oxy)-N-((3-nitro-4-(((tetrahydro-2H-pyran-4-yl)methyl)amino)phenyl)sulfonyl) benzamide] | 0.15 | 0.061 | 0.52 | 3.3 | 0.2
[2H]C([2H])(c1ccc(OC)c(OC)c1)N1CCN(C2CC3(CCN(c4ccc(C(=O)NS(=O)(=O)c5ccc(NC[C@H]6CC[C@](C)(O)CC6)c([N+](=O)[O-])c5)c(Oc5cnc6[nH]ccc6c5)c4)CC3)C2)C(c2ccccc2C(C)C)C1 (stereo partly drawn) [Example 193] | 0.26 | 0.068 | 0.8 | 3.4 | 0.23
CC(C)c1ccccc1C1CN(Cc2cccc3c2N(C)CCO3)CCN1C1CC2(CCN(c3ccc(C(=O)NS(=O)(=O)c4ccc(NC[C@H]5CC[C@](C)(O)CC5)c([N+](=O)[O-])c4)c(Oc4cnc5[nH]ccc5c4)c3)CC2)C1 (stereo partly drawn) [Example 200, 2-((1H-pyrrolo[2,3-b]pyridin-5-yl)oxy)-N-((4-((((1r,4r)-4-hydroxy-4-methylcyclohexyl)methyl)amino)-3-nitrophenyl)sulfonyl)-4-(2-(2-(2-isopropylphenyl)-4-((4-methyl-3,4-dihydro-2H-benzo[b][1,4]oxazin-5-yl)methyl)piperazin-1-yl)-7-azaspiro[3.5]nonan-7-yl) benzamide] | 0.27 | 0.24 | 1.6 | 4.2 | 1.02
CC(C)c1ccccc1C1CN(Cc2cccc3c2OC(C)(C)O3)CCN1C1CC2(CCN(c3ccc(C(=O)NS(=O)(=O)c4ccc(NC[C@H]5CC[C@](C)(O)CC5)c([N+](=O)[O-])c4)c(Oc4cnc5[nH]ccc5c4)c3)CC2)C1 (stereo partly drawn) [Example 201, 2-((1H-pyrrolo[2,3-b]pyridin-5-yl)oxy)-4-(2-(4-((2,2-dimethylbenzo [d][1,3]dioxol-4-yl)methyl)-2-(2-isopropylphenyl)piperazin-1-yl)-7-azaspiro[3.5]nonan-7-yl)-N-((4-((((1r,4r)-4-hydroxy-4-methylcyclohexyl)methyl)amino)-3-nitrophenyl)sulfonyl)benzamide] | 0.74 | 0.28 | 6.2 | 3.9 | 1.1
COc1ccc(CN2CCN(C3CC4(CCN(c5ccc(C(=O)NS(=O)(=O)c6ccc(NC[C@H]7CC[C@](C)(O)CC7)c([N+](=O)[O-])c6)c(Oc6cnc7[nH]ccc7c6)c5)CC4)C3)C(c3ccccc3C(C)C)C2)cc1C(C)=O (stereo partly drawn) [Example 212, 2-((1H-pyrrolo[2,3-b]pyridin-5-yl)oxy)-4-(2-(4-(3-acetyl-4-methoxybenzyl)-2-(2-isopropylphenyl)piperazin-1-yl)-7-azaspiro[3.5]nonan-7-yl)-N-((4-((((1r,4r)-4-hydroxy-4-methylcyclohexyl)methyl)amino)-3-nitrophenyl)sulfonyl)benzamide] | 0.3 | 0.13 | 2.15 | 4.2 | 0.54
CC(C)c1ccccc1C1CN(Cc2cccc3occc23)CCN1C1CC2(CCN(c3ccc(C(=O)NS(=O)(=O)c4ccc(NC[C@H]5CC[C@](C)(O)CC5)c([N+](=O)[O-])c4)c(Oc4cnc5[nH]ccc5c4)c3)CC2)C1 (stereo partly drawn) [Example 213, 2-((1H-pyrrolo[2,3-b]pyridin-5-yl)oxy)-4-(2-(4-(benzofuran-4-ylmethyl)-2-(2-isopropylphenyl)piperazin-1-yl)-7-azaspiro[3.5]nonan-7-yl)-N-((4-((((1r,4r)-4-hydroxy-4-methylcyclohexyl)methyl)amino)-3-nitrophenyl)sulfonyl)benzamide] | 0.32 | 0.7 | 5.2 | 3.7 | 2.6

From US20240376097A1, “BCL-2 Inhibitor” (BeiGene Ltd., priority 2020, published 2024)
